We go through 14 compounds from patent US11040981B2, “Pyrrolotriazine compounds and methods of inhibiting TAM kinases” (Syros Pharmaceuticals, Inc., priority 2017, dated 2021).

One assay deals with T1, AXL (Homo sapiens, UniProt P30530).
T1 sequence (P30530 26-894): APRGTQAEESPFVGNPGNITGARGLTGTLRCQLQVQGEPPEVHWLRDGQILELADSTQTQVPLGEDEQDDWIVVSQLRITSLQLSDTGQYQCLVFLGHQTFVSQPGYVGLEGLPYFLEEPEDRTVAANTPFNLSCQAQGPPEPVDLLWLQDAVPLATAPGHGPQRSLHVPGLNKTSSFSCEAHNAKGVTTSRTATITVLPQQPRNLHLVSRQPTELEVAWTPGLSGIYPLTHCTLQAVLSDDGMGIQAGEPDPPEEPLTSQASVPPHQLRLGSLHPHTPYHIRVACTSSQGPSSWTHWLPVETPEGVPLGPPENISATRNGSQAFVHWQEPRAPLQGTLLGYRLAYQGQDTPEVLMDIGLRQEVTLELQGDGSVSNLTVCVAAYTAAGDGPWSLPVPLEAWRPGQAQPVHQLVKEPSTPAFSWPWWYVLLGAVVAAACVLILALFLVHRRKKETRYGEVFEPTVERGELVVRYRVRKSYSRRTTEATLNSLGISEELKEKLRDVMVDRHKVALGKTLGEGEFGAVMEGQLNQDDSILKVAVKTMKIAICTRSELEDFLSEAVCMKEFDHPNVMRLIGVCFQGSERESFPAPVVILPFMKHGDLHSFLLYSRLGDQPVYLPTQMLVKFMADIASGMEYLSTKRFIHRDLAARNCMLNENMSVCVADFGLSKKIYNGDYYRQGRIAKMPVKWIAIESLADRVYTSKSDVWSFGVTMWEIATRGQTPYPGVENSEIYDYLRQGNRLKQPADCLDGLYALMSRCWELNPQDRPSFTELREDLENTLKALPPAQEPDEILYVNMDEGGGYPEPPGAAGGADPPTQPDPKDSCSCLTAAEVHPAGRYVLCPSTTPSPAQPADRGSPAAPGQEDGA
Briefly: TR-FRET kinase activity assay, AXL. Type of assay: biochemical. The note with it: ATP at Km, 60 minutes. Summed up:
(§1)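 Inhibition is measured as loss of phospho-peptide formation: kinase, fluorescent tyrosine peptide and compound are combined, ATP is added at Km, and the reaction proceeds 60 min at RT in pH 7.5 HEPES buffer. An EDTA stop and Eu-labelled phospho-specific antibody allow TR-FRET detection for IC50 fitting.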

A further assay addresses T2, TYRO3 (Homo sapiens, UniProt Q06418).
T2 sequence (Q06418 41-890): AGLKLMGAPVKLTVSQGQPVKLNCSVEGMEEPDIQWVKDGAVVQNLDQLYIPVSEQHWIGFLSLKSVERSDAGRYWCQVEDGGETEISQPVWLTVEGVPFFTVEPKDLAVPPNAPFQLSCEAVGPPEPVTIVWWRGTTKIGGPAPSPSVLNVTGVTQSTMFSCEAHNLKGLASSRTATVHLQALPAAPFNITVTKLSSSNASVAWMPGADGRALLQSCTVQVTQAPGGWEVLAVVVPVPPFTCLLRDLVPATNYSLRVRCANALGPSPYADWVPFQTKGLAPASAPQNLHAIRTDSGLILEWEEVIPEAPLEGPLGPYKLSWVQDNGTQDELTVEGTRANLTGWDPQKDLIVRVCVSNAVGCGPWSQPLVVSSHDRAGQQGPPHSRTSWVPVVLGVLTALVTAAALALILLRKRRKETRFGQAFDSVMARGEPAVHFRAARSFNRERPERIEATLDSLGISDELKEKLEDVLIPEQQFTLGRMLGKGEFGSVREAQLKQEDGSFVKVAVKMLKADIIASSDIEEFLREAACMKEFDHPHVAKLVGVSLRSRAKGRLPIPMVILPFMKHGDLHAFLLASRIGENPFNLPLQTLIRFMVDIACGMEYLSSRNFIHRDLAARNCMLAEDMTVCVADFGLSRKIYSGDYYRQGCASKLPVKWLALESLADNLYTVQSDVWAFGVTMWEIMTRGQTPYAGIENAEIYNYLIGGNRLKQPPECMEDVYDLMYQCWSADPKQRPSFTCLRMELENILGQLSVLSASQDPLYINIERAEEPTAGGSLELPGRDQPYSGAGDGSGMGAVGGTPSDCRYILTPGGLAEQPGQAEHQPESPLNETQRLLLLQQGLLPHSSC
Briefly: TR-FRET kinase activity assay, TYRO3. It is filed as biochemical. The settings on record: ATP at Km, 60 minutes. The procedure, abridged:
as §1

Consider `COC[C@H](C)Nc1ncc2c(-c3cnn(C(C)(C)C(=O)N4CCC(C)(O)C4)c3)cc([C@H]3CC[C@H](O)CC3)n2n1` (stereo partly shown) [Compound 620], for which the IC50 against AXL and at TYRO3 was not above 100 nM throughout.

For the compound `COC[C@H](C)Nc1ncc2c(-c3cnn(C(C)(C)C(=O)N4CCCC(C)(O)C4)c3)cc([C@H]3CC[C@H](O)CC3)n2n1` (stereo partly shown) [Compound 621], the IC50 at AXL and at TYRO3 was not above 100 nM throughout.

On to `COC[C@H](C)Nc1ncc2c(-c3cnn(C(C)(C)C(=O)N4CC(C)(O)C4)c3)cc([C@H]3CC[C@H](O)CC3)n2n1` [Compound 622], for which the IC50 at AXL and against TYRO3 was not above 100 nM in each case.

Turning to `COC[C@H](C)Nc1ncc2c(-c3cnn(C(C)(C)c4nc(C)co4)c3)cc([C@H]3CC[C@H](O)CC3)n2n1` [Compound 623], the IC50 against AXL and on TYRO3 was not above 100 nM throughout.

As to `COC[C@H](C)Nc1ncc2c(-c3cnn(C4COC4)c3)cc([C@H]3CCc4[nH]ncc4C3)n2n1` [Compound 624], the IC50 against AXL and against TYRO3 was not above 100 nM throughout.

Take `COC[C@H](C)Nc1ncc2c(-c3cnn(C(C)(C)c4nnc(C)s4)c3)cc([C@H]3CC[C@H](O)CC3)n2n1` [Compound 625]: the IC50 on AXL and on TYRO3 was not above 100 nM each time.

Regarding `C[C@@H](CC(F)(F)F)Nc1ncc2c(-c3cnn(C(C)(C)C(=O)N4CCN(C)CC4)c3)cc(C3CCC(O)CC3)n2n1` (stereo partly shown) [Compound 626], the IC50 on AXL and against TYRO3 was not above 100 nM in each case.

For `COC[C@H](C)Nc1ncc2c(-c3ccnc(S(C)(=O)=O)c3)cc(C3CCC(O)CC3)n2n1` (stereo partly shown) [Compound 627], the IC50 on AXL and at TYRO3 was not above 100 nM in each case.

For the compound `COC[C@H](C)Nc1ncc2c(-c3cnn(C(C)(C)c4ncc(C)o4)c3)cc(C3CCC(O)CC3)n2n1` (stereo partly shown) [Compound 628], the IC50 at AXL and against TYRO3 was not above 100 nM throughout.

Consider `[2H]C([2H])([2H])OCC(C)Nc1ncc2c(-c3ccnc(N4CCOCC4)c3)cc(C3CCC(O)CC3)n2n1` (stereo not shown) [Compound 629], for which the IC50 against AXL and against TYRO3 was not above 100 nM throughout.

As for `[2H]C([2H])([2H])OCC(C)Nc1ncc2c(-c3cnn(C4COC4)c3)cc(C3CCC(O)CC3)n2n1` (stereo not shown) [Compound 630], the IC50 on AXL and against TYRO3 was not above 100 nM each time.

As to `COC[C@H](C)Nc1ncc2c(-c3cnn(C(C)(C)c4nnc(N5CCOCC5)o4)c3)cc(C3CCC(O)CC3)n2n1` (stereo partly shown) [Compound 631], the IC50 on AXL and against TYRO3 was not above 100 nM each time.

As for `COC[C@H](C)Nc1ncc2c(-c3ccnc(N4CC(C)(O)C4)c3)cc(C3CCC(O)CC3)n2n1` (stereo partly shown) [Compound 632], the IC50 on AXL and at TYRO3 was not above 100 nM each time.

As to `COC[C@H](C)Nc1ncc2c(-c3ccnc(N4CCC(C)(O)C4)c3)cc(C3CCC(O)CC3)n2n1` (stereo partly shown) [Compound 633], the IC50 on AXL and at TYRO3 was not above 100 nM throughout.
